Test results as given in US8084649B2, “Herbicides” (Syngenta Crop Protection, inc., priority 2007, dated 2011).

The molecules below were run on Setaria faberi (SETFA) (assay: Post-emergence herbicidal activity, glasshouse pot test). Details: Setaria faberi, rate 125 g/ha, evaluated after 14 or 15 days, read-out: Post-emergence activity, SETFA (100=total damage to plant; 0=no damage to plant).
Format: in vivo
Protocol: (§1) Monocotyledonous and dicotyledonous test plants were sown in sterilised standard soil in pots. After cultivation for one day (pre-emergence) or after 10 days cultivation (post-emergence) under controlled conditions in a glasshouse, the plants were sprayed with an aqueous spray solution derived from the formulation of the technical active ingredient in 0.6 ml acetone and 45 ml formulation solution containing 10.6% Emulsogen EL (Registry number 61791-12-6), 42.2% N-methylpyrrolidone, 42.2% dipropylene glycol monomethyl ether (Registry number 34590-94-8) and 0.2% X-77 (Registry number 11097-66-8). The test plants were then grown in a greenhouse under optimum conditions until, 14 or 15 days later for post-emergence and 20 days for pre-emergence, the test was evaluated (100=total damage to plant; 0=no damage to plant). Alopecurus myosuroides (ALOMY), Avena fatua (AVEFA), Lolium perenne (LOLPE), Setaria faberi (SETFA), Digitaria sanguinalis (DIGSA), Echinochloa crus-galli (ECHCG) Post-Emergence Activity
`C#CCOC1=C(c2c(CC)cc(C)cc2CC)C(=O)CC2(CCOCC2)C1` [Compound P31, 9-(2,6-diethyl-4-methylphenyl)-10-prop-2-ynyloxy-3-oxaspiro[5.5]undec-9-en-8-one] showed a pest or weed control at 125 g/ha of 60%. For `CCc1cc(C)cc(CC)c1C1=C(OS(=O)(=O)CC)CC2(CCOCC2)CC1=O` [Compound P28], the pest or weed control at 125 g/ha was 0%.

Same assay, conditions: Setaria faberi, rate 500 g/ha, evaluated after 14 or 15 days, read-out: Post-emergence activity, SETFA (100=total damage to plant; 0=no damage to plant)
Work on `CCc1cc(C)cc(CC)c1C1=C(O)CC(C2CCCO2)CC1=O` (stereo not drawn) [Compound T8] yielded a pest or weed control at 500 g/ha of 90%.

These molecules were tested on Avena fatua (AVEFA) in the same assay as above. Details: Avena fatua, rate 125 g/ha, evaluated after 14 or 15 days, read-out: Post-emergence activity, AVEFA (100=total damage to plant; 0=no damage to plant).
Format: in vivo
Protocol: as §1
`C#CCOC1=C(c2c(CC)cc(C)cc2CC)C(=O)CC2(CCOCC2)C1` [Compound P31, 9-(2,6-diethyl-4-methylphenyl)-10-prop-2-ynyloxy-3-oxaspiro[5.5]undec-9-en-8-one] was tested, and the pest or weed control at 125 g/ha was 70%. In the case of `CCc1cc(C)cc(CC)c1C1=C(OS(=O)(=O)CC)CC2(CCOCC2)CC1=O` [Compound P28], the pest or weed control at 125 g/ha is reported as 10%.

Same assay, conditions: Avena fatua, rate 500 g/ha, evaluated after 14 or 15 days, read-out: Post-emergence activity, AVEFA (100=total damage to plant; 0=no damage to plant)
With `CCc1cc(C)cc(CC)c1C1=C(O)CC(C2CCCO2)CC1=O` (stereo not drawn) [Compound T8] the pest or weed control at 500 g/ha was 90%.

The molecules below were run on Digitaria sanguinalis (DIGSA) in the same assay as above. Details: Digitaria sanguinalis, rate 125 g/ha, evaluated after 14 or 15 days, read-out: Post-emergence activity, DIGSA (100=total damage to plant; 0=no damage to plant).
Format: in vivo
Protocol: as §1
`C#CCOC1=C(c2c(CC)cc(C)cc2CC)C(=O)CC2(CCOCC2)C1` [Compound P31, 9-(2,6-diethyl-4-methylphenyl)-10-prop-2-ynyloxy-3-oxaspiro[5.5]undec-9-en-8-one] gave a pest or weed control at 125 g/ha of 20%. `CCc1cc(C)cc(CC)c1C1=C(OS(=O)(=O)CC)CC2(CCOCC2)CC1=O` [Compound P28] gave a pest or weed control at 125 g/ha of 10%.

Same assay, conditions: Digitaria sanguinalis, rate 500 g/ha, evaluated after 14 or 15 days, read-out: Post-emergence activity, DIGSA (100=total damage to plant; 0=no damage to plant)
`CCc1cc(C)cc(CC)c1C1=C(O)CC(C2CCCO2)CC1=O` (stereo not drawn) [Compound T8] gave a pest or weed control at 500 g/ha of 90%.

What follows are molecules tested on Lolium perenne (LOLPE) in the same assay as above. Details: Lolium perenne, rate 125 g/ha, evaluated after 14 or 15 days, read-out: Post-emergence activity, LOLPE (100=total damage to plant; 0=no damage to plant).
Format: in vivo
Protocol: as §1
Molecule `C#CCOC1=C(c2c(CC)cc(C)cc2CC)C(=O)CC2(CCOCC2)C1` [Compound P31, 9-(2,6-diethyl-4-methylphenyl)-10-prop-2-ynyloxy-3-oxaspiro[5.5]undec-9-en-8-one] has a pest or weed control at 125 g/ha of 50%. Molecule `CCc1cc(C)cc(CC)c1C1=C(OS(=O)(=O)CC)CC2(CCOCC2)CC1=O` [Compound P28] has a pest or weed control at 125 g/ha of 0%.

Same assay, conditions: Lolium perenne, rate 500 g/ha, evaluated after 14 or 15 days, read-out: Post-emergence activity, LOLPE (100=total damage to plant; 0=no damage to plant)
Molecule `CCc1cc(C)cc(CC)c1C1=C(O)CC(C2CCCO2)CC1=O` (stereo not drawn) [Compound T8] has a pest or weed control at 500 g/ha of 100%.

What follows are molecules tested on Alopecurus myosuroides (ALOMY) in the same assay as above. Details: Alopecurus myosuroides, rate 125 g/ha, evaluated after 14 or 15 days, read-out: Post-emergence activity, ALOMY (100=total damage to plant; 0=no damage to plant).
Format: in vivo
Protocol: as §1
Work on `C#CCOC1=C(c2c(CC)cc(C)cc2CC)C(=O)CC2(CCOCC2)C1` [Compound P31, 9-(2,6-diethyl-4-methylphenyl)-10-prop-2-ynyloxy-3-oxaspiro[5.5]undec-9-en-8-one] yielded a pest or weed control at 125 g/ha of 70%. In the case of `CCc1cc(C)cc(CC)c1C1=C(OS(=O)(=O)CC)CC2(CCOCC2)CC1=O` [Compound P28], the pest or weed control at 125 g/ha is reported as 0%.

Same assay, conditions: Alopecurus myosuroides, rate 500 g/ha, evaluated after 14 or 15 days, read-out: Post-emergence activity, ALOMY (100=total damage to plant; 0=no damage to plant)
Molecule `CCc1cc(C)cc(CC)c1C1=C(O)CC(C2CCCO2)CC1=O` (stereo not drawn) [Compound T8] has a pest or weed control at 500 g/ha of 100%.

These molecules were tested on Echinochloa crus-galli (ECHCG) in the same assay as above. Details: Echinochloa crus-galli, rate 500 g/ha, evaluated after 14 or 15 days, read-out: Post-emergence activity, ECHCG (100=total damage to plant; 0=no damage to plant).
Format: in vivo
Protocol: as §1
`CCc1cc(C)cc(CC)c1C1=C(O)CC(C2CCCO2)CC1=O` (stereo not drawn) [Compound T8] gave a pest or weed control at 500 g/ha of 100%.

These molecules were tested on Setaria faberi (SETFA) (assay: Pre-emergence herbicidal activity, glasshouse pot test). Details: Setaria faberi, 480 h, rate 500 g/ha, evaluated after 20 days, read-out: Pre-emergence activity, SETFA (100=total damage to plant; 0=no damage to plant).
Format: in vivo
Protocol: as §1, with “Pre-Emergence” for “Post-Emergence”
`CCc1cc(C)cc(CC)c1C1=C(O)CC(C2CCCO2)CC1=O` (stereo not drawn) [Compound T8] gave a pest or weed control at 500 g/ha of 100%. With `C#CCOC1=C(c2c(CC)cc(C)cc2CC)C(=O)CC2(CCOCC2)C1` [Compound P31, 9-(2,6-diethyl-4-methylphenyl)-10-prop-2-ynyloxy-3-oxaspiro[5.5]undec-9-en-8-one] the pest or weed control at 500 g/ha was 90%. In the case of `CCc1cc(C)cc(CC)c1C1=C(OS(=O)(=O)CC)CC2(CCOCC2)CC1=O` [Compound P28], the pest or weed control at 500 g/ha is reported as 70%.

Each molecule was assayed on Avena fatua (AVEFA) in the same assay as above. Details: Avena fatua, 480 h, rate 500 g/ha, evaluated after 20 days, read-out: Pre-emergence activity, AVEFA (100=total damage to plant; 0=no damage to plant).
Format: in vivo
Protocol: as §1, with “Pre-Emergence” for “Post-Emergence”
`CCc1cc(C)cc(CC)c1C1=C(O)CC(C2CCCO2)CC1=O` (stereo not drawn) [Compound T8] gave a pest or weed control at 500 g/ha of 80%. `C#CCOC1=C(c2c(CC)cc(C)cc2CC)C(=O)CC2(CCOCC2)C1` [Compound P31, 9-(2,6-diethyl-4-methylphenyl)-10-prop-2-ynyloxy-3-oxaspiro[5.5]undec-9-en-8-one] gave a pest or weed control at 500 g/ha of 100%. With `CCc1cc(C)cc(CC)c1C1=C(OS(=O)(=O)CC)CC2(CCOCC2)CC1=O` [Compound P28] the pest or weed control at 500 g/ha was 30%.

Each molecule was assayed on Digitaria sanguinalis (DIGSA) in the same assay as above. Details: Digitaria sanguinalis, 480 h, rate 500 g/ha, evaluated after 20 days, read-out: Pre-emergence activity, DIGSA (100=total damage to plant; 0=no damage to plant).
Format: in vivo
Protocol: as §1, with “Pre-Emergence” for “Post-Emergence”
In the case of `C#CCOC1=C(c2c(CC)cc(C)cc2CC)C(=O)CC2(CCOCC2)C1` [Compound P31, 9-(2,6-diethyl-4-methylphenyl)-10-prop-2-ynyloxy-3-oxaspiro[5.5]undec-9-en-8-one], the pest or weed control at 500 g/ha is reported as 100%. `CCc1cc(C)cc(CC)c1C1=C(OS(=O)(=O)CC)CC2(CCOCC2)CC1=O` [Compound P28] showed a pest or weed control at 500 g/ha of 70%.

The molecules below were run on Lolium perenne (LOLPE) in the same assay as above. Details: Lolium perenne, 480 h, rate 500 g/ha, evaluated after 20 days, read-out: Pre-emergence activity, LOLPE (100=total damage to plant; 0=no damage to plant).
Format: in vivo
Protocol: as §1, with “Pre-Emergence” for “Post-Emergence”
With `CCc1cc(C)cc(CC)c1C1=C(O)CC(C2CCCO2)CC1=O` (stereo not drawn) [Compound T8] the pest or weed control at 500 g/ha was 100%. `C#CCOC1=C(c2c(CC)cc(C)cc2CC)C(=O)CC2(CCOCC2)C1` [Compound P31, 9-(2,6-diethyl-4-methylphenyl)-10-prop-2-ynyloxy-3-oxaspiro[5.5]undec-9-en-8-one] was tested, and the pest or weed control at 500 g/ha was 100%. Molecule `CCc1cc(C)cc(CC)c1C1=C(OS(=O)(=O)CC)CC2(CCOCC2)CC1=O` [Compound P28] has a pest or weed control at 500 g/ha of 80%.

The molecules below were run on Alopecurus myosuroides (ALOMY) in the same assay as above. Details: Alopecurus myosuroides, 480 h, rate 500 g/ha, evaluated after 20 days, read-out: Pre-emergence activity, ALOMY (100=total damage to plant; 0=no damage to plant).
Format: in vivo
Protocol: as §1, with “Pre-Emergence” for “Post-Emergence”
For `CCc1cc(C)cc(CC)c1C1=C(O)CC(C2CCCO2)CC1=O` (stereo not drawn) [Compound T8], the pest or weed control at 500 g/ha was 100%. `C#CCOC1=C(c2c(CC)cc(C)cc2CC)C(=O)CC2(CCOCC2)C1` [Compound P31, 9-(2,6-diethyl-4-methylphenyl)-10-prop-2-ynyloxy-3-oxaspiro[5.5]undec-9-en-8-one] was tested, and the pest or weed control at 500 g/ha was 100%. `CCc1cc(C)cc(CC)c1C1=C(OS(=O)(=O)CC)CC2(CCOCC2)CC1=O` [Compound P28] gave a pest or weed control at 500 g/ha of 80%.

These molecules were tested on Echinochloa crus-galli (ECHCG) in the same assay as above. Details: Echinochloa crus-galli, 480 h, rate 500 g/ha, evaluated after 20 days, read-out: Pre-emergence activity, ECHCG (100=total damage to plant; 0=no damage to plant).
Format: in vivo
Protocol: as §1, with “Pre-Emergence” for “Post-Emergence”
For `CCc1cc(C)cc(CC)c1C1=C(O)CC(C2CCCO2)CC1=O` (stereo not drawn) [Compound T8], the pest or weed control at 500 g/ha was 100%. With `C#CCOC1=C(c2c(CC)cc(C)cc2CC)C(=O)CC2(CCOCC2)C1` [Compound P31, 9-(2,6-diethyl-4-methylphenyl)-10-prop-2-ynyloxy-3-oxaspiro[5.5]undec-9-en-8-one] the pest or weed control at 500 g/ha was 100%. Work on `CCc1cc(C)cc(CC)c1C1=C(OS(=O)(=O)CC)CC2(CCOCC2)CC1=O` [Compound P28] yielded a pest or weed control at 500 g/ha of 10%.
